Laboratory results: patent publication US9283297B2, “Sanitary article comprising a microbe-inhibiting composition” (SCA HYGIENE PRODUCTS AB, priority 2006, dated 2016)
Several values for one entry are separate records, joined by “and”; a condition that tells them apart may be missing. Equal values may be shown once.

Columns and labels:
C. albicans = assay: Example 1 Screening II: Lactobacillus cell-free filtrate, turbidity; type: cell-based, Candida albicans; conditions: three times concentrated
Description: (§1) Clinical isolates of Candida albicans and Candida glabrata were used as test strains. These were isolated from the vagina of women with vaginal candidiasis and from healthy females. Suspensions of lactobacilli grown in dMRSs broth (MRS broth without addition of sodium acetate) were centrifuged and sterile filtered. The filtrate is henceforth called Lactobacillus Cell-free Filtrate, LCF. A specified volume was transferred to wells of a micro titre plate and was let to air dry and thereafter resuspended in sterile distilled water to a concentration three times higher and transferred to 96-wells micro titre plates. Candida was added to all vials (three isolates of C. albicans and C. glabrata, respectively, were used). The inhibition was evaluated by visual observation of turbidity and graduated by two persons using a template on a scale from five to zero. The wells containing strong growth of Candida sp. in pure dMRSs-broth was graduated as five, while wells with no visual growth were graduated as zero.

C. glabrata = assay: as above; type: cell-based, Candida glabrata; conditions: three times concentrated
Description: as §1

Candida albicans 702 = assay: Test 4: agar plug test, zones with no growth of Candida; type: cell-based; conditions: for Zones around the plugs with no growth of Candida, Plug with LB931: ~10^7 LB 931 per plug
Description: The purpose of this test was to evaluate the enhanced Candida inhibition from Na-acetate in combination with growing cells of Lactobacillus plantarum LB 931. Two plates were made with M17 agar and two with MRS agar. MRS medium (developed by De Man, Rogosa and Sharpe), is a growth medium commonly used for Lactobacillus. MRS agar from Merck contains 5 g sodium acetate per litre agar. M17 (Oxoid) is a similar commercial substrate for Lactobacillus but without the addition of sodium acetate. The agars were prepared as described on the packages. Lactobacillus plantarum LB931 was cultivated in MRS broth in 37° C. with 5% CO2 for 24 hours. Candida albicans 702 was cultivated in M17 broth at 37° C. for 24 hours. Holes (Ø10 mm) were punched in the plates and filled with 250 μl plugs of agar mixtures containing ˜10^7 LB 931 in MRS agar). The plates were left for 30 minutes and then incubated 24 hours at 37° C. with 5% CO2. Overnight culture of C. albicans in M17 broth was diluted 10 times and 100 μl was spread on the surface of each plate. The plates were then incubated for 24 hours at 37° C. As controls, holes (Ø10 mm) were filled with only MRS agar. The plates were evaluated in respect to Candida growth inhibition. Zones around the plugs with no growth of Candida were measured (Ø mm).

Substance | inhibition of growth of C. albicans (C. albicans) | inhibition of growth of C. glabrata (C. glabrata) | Zones around the plugs with no growth of Candida, Plug with LB931 (Candida albicans 702; M17 agar in the Petri dish (without sodium acetate)) | Candida growth inhibition, in words (Candida albicans 702; M17 agar plates (without sodium acetate)) | Zones around the plugs with no growth of Candida, Plug with LB931 (Candida albicans 702; MRS agar in the Petri dish (contains 5 g sodium acetate per litre)) | Candida growth inhibition zones, in words (Candida albicans 702; MRS agar plates (sodium acetate))
Lactobacillus fermentum Ess-1 | comprehensive capacity to inhibit growth of Candida | comprehensive capacity to inhibit growth of Candida | – | – | – | –
Lactobacillus plantarum LB 931 [LB931] | – | – | 0 Ø mm | substantially no inhibition of Candida | 18.8 Ø mm and 18.1 Ø mm | clear zones
